Test results as given in ChEMBL document CHEMBL4177730, “Rational modification of semaxanib and sunitinib for developing a tumor growth inhibitor targeting ATP binding site of tyrosine kinase” (2018).
Active and inactive are the calls of the source.

Assays:
Assay type in all cases: functional, cell-based
[1] = test system: T47D; assay: Growth inhibition of human T47D cells at 10 uM after 48 hrs by sulforhodamine B assay
[2] = test system: OVCAR-3; assay: Growth inhibition of human OVCAR3 cells at 10 uM after 48 hrs by sulforhodamine B assay
[3] = test system: SK-MEL-28; assay: Growth inhibition of human SK-MEL-28 cells at 10 uM after 48 hrs by sulforhodamine B assay
[4] = test system: M14; assay: Growth inhibition of human M14 cells at 10 uM after 48 hrs by sulforhodamine B assay
[5] = test system: Hs-578T; assay: Growth inhibition of human Hs 578T cells at 10 uM after 48 hrs by sulforhodamine B assay
[6] = test system: SK-MEL-5; assay: Growth inhibition of human SK-MEL-5 cells at 10 uM after 48 hrs by sulforhodamine B assay
[7] = test system: UO-31; assay: Growth inhibition of human UO31 cells at 10 uM after 48 hrs by sulforhodamine B assay
[8] = test system: HCC 2998; assay: Growth inhibition of human HCC2998 cells at 10 uM after 48 hrs by sulforhodamine B assay
[9] = test system: A549; assay: Growth inhibition of human A549/ATCC cells at 10 uM after 48 hrs by sulforhodamine B assay
[10] = test system: SF-268; assay: Growth inhibition of human SF268 cells at 10 uM after 48 hrs by sulforhodamine B assay
[11] = test system: COLO 205; assay: Growth inhibition of human COLO205 cells at 10 uM after 48 hrs by sulforhodamine B assay
[12] = test system: NCI-H322M; assay: Growth inhibition of human NCI-H322M cells at 10 uM after 48 hrs by sulforhodamine B assay
[13] = test system: RXF 393; assay: Growth inhibition of human RXF393 cells at 10 uM after 48 hrs by sulforhodamine B assay
[14] = test system: EKVX; assay: Growth inhibition of human EKVX cells at 10 uM after 48 hrs by sulforhodamine B assay
[15] = test system: NCI-H460; assay: Growth inhibition of human NCI-H460 cells at 10 uM after 48 hrs by sulforhodamine B assay
[16] = test system: HCT-116; assay: Growth inhibition of human HCT116 cells at 10 uM after 48 hrs by sulforhodamine B assay
[17] = test system: MDA-MB-435; assay: Growth inhibition of human MDA-MB-435 cells at 10 uM after 48 hrs by sulforhodamine B assay
[18] = test system: MCF7; assay: Growth inhibition of human MCF7 cells at 10 uM after 48 hrs by sulforhodamine B assay
[19] = test system: HCT-15; assay: Growth inhibition of human HCT15 cells at 10 uM after 48 hrs by sulforhodamine B assay
[20] = test system: NCI/ADR-RES; assay: Growth inhibition of human NCI-ADR-RES cells at 10 uM after 48 hrs by sulforhodamine B assay
[21] = test system: SK-MEL-2; assay: Growth inhibition of human SK-MEL-2 cells at 10 uM after 48 hrs by sulforhodamine B assay
[22] = test system: RPMI-8226; assay: Growth inhibition of human RPMI8226 cells at 10 uM after 48 hrs by sulforhodamine B assay
[23] = test system: PC-3; assay: Growth inhibition of human PC3 cells at 10 uM after 48 hrs by sulforhodamine B assay
[24] = test system: SF-295; assay: Growth inhibition of human SF295 cells at 10 uM after 48 hrs by sulforhodamine B assay
[25] = test system: HOP-62; assay: Growth inhibition of human HOP62 cells at 10 uM after 48 hrs by sulforhodamine B assay
[26] = test system: IGROV-1; assay: Growth inhibition of human IGROV1 cells at 10 uM after 48 hrs by sulforhodamine B assay
[27] = test system: CCRF-CEM; assay: Growth inhibition of human CCRF-CEM cells at 10 uM after 48 hrs by sulforhodamine B assay
[28] = test system: SF-539; assay: Growth inhibition of human SF539 cells at 10 uM after 48 hrs by sulforhodamine B assay
[29] = test system: K562; assay: Growth inhibition of human K562 cells at 10 uM after 48 hrs by sulforhodamine B assay
[30] = test system: MDA-MB-468; assay: Growth inhibition of human MDA-MB-468 cells at 10 uM after 48 hrs by sulforhodamine B assay
[31] = test system: 786-0; assay: Growth inhibition of human 786-0 cells at 10 uM after 48 hrs by sulforhodamine B assay
[32] = test system: HT-29; assay: Growth inhibition of human HT-29 cells at 10 uM after 48 hrs by sulforhodamine B assay
[33] = test system: U-251; assay: Growth inhibition of human U251 cells at 10 uM after 48 hrs by sulforhodamine B assay
[34] = test system: KM12; assay: Growth inhibition of human KM12 cells at 10 uM after 48 hrs by sulforhodamine B assay
[35] = test system: Malme-3M; assay: Growth inhibition of human MALME-3M cells at 10 uM after 48 hrs by sulforhodamine B assay
[36] = test system: OVCAR-5; assay: Growth inhibition of human OVCAR5 cells at 10 uM after 48 hrs by sulforhodamine B assay
[37] = test system: HL-60(TB); assay: Growth inhibition of human HL-60(TB) cells at 10 uM after 48 hrs by sulforhodamine B assay
[38] = test system: CAKI-1; assay: Growth inhibition of human CAKI-1 cells at 10 uM after 48 hrs by sulforhodamine B assay
[39] = test system: LOX IMVI; assay: Growth inhibition of human LOXIMVI cells at 10 uM after 48 hrs by sulforhodamine B assay
[40] = test system: OVCAR-8; assay: Growth inhibition of human OVCAR8 cells at 10 uM after 48 hrs by sulforhodamine B assay
[41] = test system: SK-OV-3; assay: Growth inhibition of human SKOV3 cells at 10 uM after 48 hrs by sulforhodamine B assay
[42] = test system: UACC-62; assay: Growth inhibition of human UACC62 cells at 10 uM after 48 hrs by sulforhodamine B assay
[43] = test system: SNB-19; assay: Growth inhibition of human SNB19 cells at 10 uM after 48 hrs by sulforhodamine B assay
[44] = test system: NCI-H23; assay: Growth inhibition of human NCI-H23 cells at 10 uM after 48 hrs by sulforhodamine B assay
[45] = test system: TK-10; assay: Growth inhibition of human TK10 cells at 10 uM after 48 hrs by sulforhodamine B assay
[46] = test system: BT-549; assay: Growth inhibition of human BT549 cells at 10 uM after 48 hrs by sulforhodamine B assay
[47] = test system: SN12C; assay: Growth inhibition of human SN12C cells at 10 uM after 48 hrs by sulforhodamine B assay
[48] = test system: SR; assay: Growth inhibition of human SR cells at 10 uM after 48 hrs by sulforhodamine B assay
[49] = test system: A498; assay: Growth inhibition of human A498 cells at 10 uM after 48 hrs by sulforhodamine B assay
[50] = test system: HOP-92; assay: Growth inhibition of human HOP92 cells at 10 uM after 48 hrs by sulforhodamine B assay
[51] = test system: SNB-75; assay: Growth inhibition of human SNB75 cells at 10 uM after 48 hrs by sulforhodamine B assay
[52] = test system: SW-620; assay: Growth inhibition of human SW620 cells at 10 uM after 48 hrs by sulforhodamine B assay
[53] = test system: DU-145; assay: Growth inhibition of human DU145 cells at 10 uM after 48 hrs by sulforhodamine B assay
[54] = test system: MDA-MB-231; assay: Growth inhibition of human MDA-MB-231 cells at 10 uM after 48 hrs by sulforhodamine B assay
[55] = test system: MOLT-4; assay: Growth inhibition of human MOLT4 cells at 10 uM after 48 hrs by sulforhodamine B assay
[56] = test system: ACHN; assay: Growth inhibition of human ACHN cells at 10 uM after 48 hrs by sulforhodamine B assay
[57] = test system: OVCAR-4; assay: Growth inhibition of human OVCAR4 cells at 10 uM after 48 hrs by sulforhodamine B assay
[58] = test system: NCI-H226; assay: Growth inhibition of human NCI-H226 cells at 10 uM after 48 hrs by sulforhodamine B assay
[59] = test system: NCI-H522; assay: Growth inhibition of human NCI-H522 cells at 10 uM after 48 hrs by sulforhodamine B assay

Measured: growth inhibition (GI)

Cc1ccc(S(=O)(=O)n2cccc2/C=C2\C(=O)N(c3c(Cl)cccc3Cl)c3ccccc32)cc1
inactive: [1] | [2] | [3] | [4] | [5] | [6] | [7] | [8] | [9] | [10] | [11] | [12] | [13] | [14] | [15] | [16] | [17] | [18] | [19] | [20] | [21] | [22] | [23] | [24] | [25] | [26] | [27] | [28] | [29] | [30] | [31] | [32] | [33] | [34] | [35] | [36] | [37] | [38] | [39] | [40] | [41] | [42] | [43] | [44] | [45] | [46] | [47] | [48] | [49] | [50] | [51] | [52] | [53] | [54] | [55] | [56] | [57] | [58] | [59]

O=C1/C(=C\c2cccn2Cc2ccc(F)cc2)c2ccccc2N1c1c(Cl)cccc1Cl
inactive: [1] | [2] | [3] | [4] | [5] | [6] | [7] | [8] | [9] | [10] | [11] | [12] | [13] | [14] | [15] | [16] | [17] | [18] | [19] | [20] | [21] | [22] | [23] | [24] | [25] | [26] | [27] | [28] | [29] | [30] | [31] | [32] | [33] | [34] | [35] | [36] | [37] | [38] | [39] | [40] | [41] | [42] | [43] | [44] | [45] | [46] | [47] | [48] | [49] | [50] | [51] | [52] | [53] | [54] | [55] | [56] | [57] | [58] | [59]
